The record followed here is ChEMBL document CHEMBL3352497, “Design and optimization of novel 4-(2-fluorophenoxy)quinoline derivatives bearing a hydrazone moiety as c-Met kinase inhibitors” (Eur J Med Chem, 2014).

In experiment [1] the target is T1, Receptor-type tyrosine-protein kinase FLT3 (Homo sapiens, UniProt P36888).
T1 sequence (P36888 whole entry): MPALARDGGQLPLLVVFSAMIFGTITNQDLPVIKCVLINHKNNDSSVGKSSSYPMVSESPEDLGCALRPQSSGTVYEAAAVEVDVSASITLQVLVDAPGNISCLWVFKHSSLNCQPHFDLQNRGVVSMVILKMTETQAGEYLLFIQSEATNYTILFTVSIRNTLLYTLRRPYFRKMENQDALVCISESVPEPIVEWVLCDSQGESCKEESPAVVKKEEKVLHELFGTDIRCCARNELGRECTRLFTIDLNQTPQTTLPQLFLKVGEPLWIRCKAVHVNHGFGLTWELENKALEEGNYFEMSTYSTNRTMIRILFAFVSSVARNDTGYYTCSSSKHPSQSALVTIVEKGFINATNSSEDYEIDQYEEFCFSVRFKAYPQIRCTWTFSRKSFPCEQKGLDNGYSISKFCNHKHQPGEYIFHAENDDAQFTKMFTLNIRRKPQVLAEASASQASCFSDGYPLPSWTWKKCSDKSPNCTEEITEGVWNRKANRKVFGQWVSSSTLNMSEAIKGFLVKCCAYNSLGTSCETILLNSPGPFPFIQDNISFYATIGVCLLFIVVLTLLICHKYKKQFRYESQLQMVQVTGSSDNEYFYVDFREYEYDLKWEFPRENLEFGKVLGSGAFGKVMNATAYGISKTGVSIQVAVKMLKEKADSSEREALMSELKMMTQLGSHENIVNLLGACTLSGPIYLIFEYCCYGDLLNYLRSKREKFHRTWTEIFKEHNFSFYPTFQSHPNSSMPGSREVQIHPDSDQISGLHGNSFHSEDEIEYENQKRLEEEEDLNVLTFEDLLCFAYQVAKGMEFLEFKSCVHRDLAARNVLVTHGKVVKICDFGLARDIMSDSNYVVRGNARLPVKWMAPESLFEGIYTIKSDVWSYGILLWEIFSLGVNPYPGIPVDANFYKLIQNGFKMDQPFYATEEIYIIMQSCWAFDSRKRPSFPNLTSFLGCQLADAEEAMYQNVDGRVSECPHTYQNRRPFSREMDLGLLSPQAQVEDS
As to the kind of experiment: Inhibition of FLT3 (unknown origin).

A short description of experiment [2]: Antiproliferative activity against human MKN45 cells assessed as inhibition of cell growth after 72 hrs by MTT assay. To be noted: MKN-45, 72 h. The experiment is classed as functional, cell-based.
For experiment [3], the target named is Hepatocyte growth factor receptor (Homo sapiens, UniProt P08581). In words: Inhibition of c-Met (unknown origin) using poly (Glu, Tyr) 4:1 substrate by HTRF assay.
Sequence of Hepatocyte growth factor receptor (P08581 whole entry): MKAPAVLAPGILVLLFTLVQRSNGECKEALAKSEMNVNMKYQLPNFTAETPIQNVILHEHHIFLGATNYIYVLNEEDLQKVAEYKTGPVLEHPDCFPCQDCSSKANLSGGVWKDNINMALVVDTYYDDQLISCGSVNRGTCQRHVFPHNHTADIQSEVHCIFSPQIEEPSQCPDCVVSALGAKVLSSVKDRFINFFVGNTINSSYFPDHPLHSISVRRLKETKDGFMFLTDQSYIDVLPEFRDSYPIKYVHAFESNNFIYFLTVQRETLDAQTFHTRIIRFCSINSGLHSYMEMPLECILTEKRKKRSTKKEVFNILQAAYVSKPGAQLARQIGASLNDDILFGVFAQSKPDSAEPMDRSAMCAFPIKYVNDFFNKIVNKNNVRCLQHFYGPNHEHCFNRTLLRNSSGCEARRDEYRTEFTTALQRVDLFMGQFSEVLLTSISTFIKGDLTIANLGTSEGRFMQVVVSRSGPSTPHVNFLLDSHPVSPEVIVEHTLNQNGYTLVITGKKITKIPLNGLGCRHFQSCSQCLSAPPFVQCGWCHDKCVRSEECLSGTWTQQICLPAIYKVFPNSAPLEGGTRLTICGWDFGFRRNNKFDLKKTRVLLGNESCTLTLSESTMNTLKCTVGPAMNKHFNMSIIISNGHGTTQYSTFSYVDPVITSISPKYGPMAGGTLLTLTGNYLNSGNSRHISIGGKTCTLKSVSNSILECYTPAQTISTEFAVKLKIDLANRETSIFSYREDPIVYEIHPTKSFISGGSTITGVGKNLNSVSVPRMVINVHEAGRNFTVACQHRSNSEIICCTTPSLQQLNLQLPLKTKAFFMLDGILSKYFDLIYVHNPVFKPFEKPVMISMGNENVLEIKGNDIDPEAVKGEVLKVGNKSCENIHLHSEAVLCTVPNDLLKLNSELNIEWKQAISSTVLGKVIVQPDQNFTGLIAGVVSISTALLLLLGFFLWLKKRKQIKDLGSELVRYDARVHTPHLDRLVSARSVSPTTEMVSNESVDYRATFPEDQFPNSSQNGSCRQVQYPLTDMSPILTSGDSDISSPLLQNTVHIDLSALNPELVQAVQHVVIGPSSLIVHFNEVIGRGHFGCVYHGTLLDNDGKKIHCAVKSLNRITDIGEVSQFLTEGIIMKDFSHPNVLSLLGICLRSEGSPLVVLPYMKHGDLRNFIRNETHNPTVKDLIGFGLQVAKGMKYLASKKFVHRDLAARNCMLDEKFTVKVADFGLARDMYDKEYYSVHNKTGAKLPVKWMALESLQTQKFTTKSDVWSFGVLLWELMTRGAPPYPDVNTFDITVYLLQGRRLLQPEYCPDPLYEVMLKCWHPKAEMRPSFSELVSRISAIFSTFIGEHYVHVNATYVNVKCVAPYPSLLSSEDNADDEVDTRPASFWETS
For a further experiment, the system named is A549. As to the kind of experiment: cells. To be noted: Homo sapiens, A549, 72 h.
The next experiment in a line: cells. To be noted: Homo sapiens, NCI-H460, 72 h.
The next experiment relates to HT-29. As to the kind of experiment: cells. Conditions: Homo sapiens, HT-29, 72 h.
For experiment [4], the target named is Macrophage-stimulating protein receptor (Homo sapiens, UniProt Q04912). In words: Inhibition of RON (unknown origin).
Sequence of Macrophage-stimulating protein receptor (Q04912 25-304 limits assumed): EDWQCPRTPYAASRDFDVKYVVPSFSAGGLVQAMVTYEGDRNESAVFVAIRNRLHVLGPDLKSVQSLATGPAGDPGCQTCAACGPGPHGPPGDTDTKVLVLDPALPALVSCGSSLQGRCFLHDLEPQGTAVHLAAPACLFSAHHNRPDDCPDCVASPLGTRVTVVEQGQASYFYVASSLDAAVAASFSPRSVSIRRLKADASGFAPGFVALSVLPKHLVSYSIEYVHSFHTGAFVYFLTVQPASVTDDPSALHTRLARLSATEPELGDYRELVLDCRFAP
Sequence of Macrophage-stimulating protein receptor (Q04912 310-1400 limits assumed): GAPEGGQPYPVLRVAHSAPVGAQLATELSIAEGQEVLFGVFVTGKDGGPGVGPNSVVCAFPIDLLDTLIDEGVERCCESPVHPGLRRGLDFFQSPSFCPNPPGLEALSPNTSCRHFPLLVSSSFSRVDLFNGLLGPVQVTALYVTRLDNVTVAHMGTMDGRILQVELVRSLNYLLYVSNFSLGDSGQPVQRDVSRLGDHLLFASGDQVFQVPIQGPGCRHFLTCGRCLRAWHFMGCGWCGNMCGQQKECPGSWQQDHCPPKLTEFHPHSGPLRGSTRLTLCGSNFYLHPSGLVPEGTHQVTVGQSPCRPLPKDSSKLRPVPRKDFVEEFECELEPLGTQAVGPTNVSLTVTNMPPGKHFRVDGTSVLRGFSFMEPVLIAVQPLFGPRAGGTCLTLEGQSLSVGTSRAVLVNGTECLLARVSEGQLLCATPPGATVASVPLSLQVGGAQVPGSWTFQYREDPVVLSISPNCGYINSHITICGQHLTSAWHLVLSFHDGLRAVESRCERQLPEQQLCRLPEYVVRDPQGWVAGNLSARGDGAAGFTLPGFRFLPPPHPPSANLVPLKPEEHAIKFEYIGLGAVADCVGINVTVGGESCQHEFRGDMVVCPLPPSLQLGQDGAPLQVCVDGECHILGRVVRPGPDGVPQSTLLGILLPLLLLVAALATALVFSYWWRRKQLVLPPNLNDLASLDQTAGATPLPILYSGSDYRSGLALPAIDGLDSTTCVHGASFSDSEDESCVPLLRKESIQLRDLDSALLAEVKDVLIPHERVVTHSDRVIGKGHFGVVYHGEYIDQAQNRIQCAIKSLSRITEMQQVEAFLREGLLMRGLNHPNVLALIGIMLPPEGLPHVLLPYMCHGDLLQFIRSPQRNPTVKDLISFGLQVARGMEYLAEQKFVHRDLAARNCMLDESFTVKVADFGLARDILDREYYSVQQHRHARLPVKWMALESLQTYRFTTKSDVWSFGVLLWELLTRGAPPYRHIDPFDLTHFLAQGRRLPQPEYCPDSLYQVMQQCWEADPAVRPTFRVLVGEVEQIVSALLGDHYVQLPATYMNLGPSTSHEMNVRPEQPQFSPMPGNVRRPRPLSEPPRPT
Experiment [5] concerns the target Vascular endothelial growth factor receptor 2 (Homo sapiens, UniProt P35968). As to the kind of experiment: Inhibition of KDR (unknown origin).
For experiment [6], the target named is Epidermal growth factor receptor (Homo sapiens, UniProt P00533). In words: Inhibition of EGFR (unknown origin).
The nature of experiment [7]: Antiproliferative activity against human U87MG cells assessed as inhibition of cell growth after 72 hrs by MTT assay. The format is functional, cell-based, U-87MG ATCC. Conditions: U-87 MG.
The target of experiment [8] is Mast/stem cell growth factor receptor Kit (Homo sapiens, UniProt P10721). As to the kind of experiment: Inhibition of c-KIT (unknown origin).
Sequence of Mast/stem cell growth factor receptor Kit (P10721 whole entry): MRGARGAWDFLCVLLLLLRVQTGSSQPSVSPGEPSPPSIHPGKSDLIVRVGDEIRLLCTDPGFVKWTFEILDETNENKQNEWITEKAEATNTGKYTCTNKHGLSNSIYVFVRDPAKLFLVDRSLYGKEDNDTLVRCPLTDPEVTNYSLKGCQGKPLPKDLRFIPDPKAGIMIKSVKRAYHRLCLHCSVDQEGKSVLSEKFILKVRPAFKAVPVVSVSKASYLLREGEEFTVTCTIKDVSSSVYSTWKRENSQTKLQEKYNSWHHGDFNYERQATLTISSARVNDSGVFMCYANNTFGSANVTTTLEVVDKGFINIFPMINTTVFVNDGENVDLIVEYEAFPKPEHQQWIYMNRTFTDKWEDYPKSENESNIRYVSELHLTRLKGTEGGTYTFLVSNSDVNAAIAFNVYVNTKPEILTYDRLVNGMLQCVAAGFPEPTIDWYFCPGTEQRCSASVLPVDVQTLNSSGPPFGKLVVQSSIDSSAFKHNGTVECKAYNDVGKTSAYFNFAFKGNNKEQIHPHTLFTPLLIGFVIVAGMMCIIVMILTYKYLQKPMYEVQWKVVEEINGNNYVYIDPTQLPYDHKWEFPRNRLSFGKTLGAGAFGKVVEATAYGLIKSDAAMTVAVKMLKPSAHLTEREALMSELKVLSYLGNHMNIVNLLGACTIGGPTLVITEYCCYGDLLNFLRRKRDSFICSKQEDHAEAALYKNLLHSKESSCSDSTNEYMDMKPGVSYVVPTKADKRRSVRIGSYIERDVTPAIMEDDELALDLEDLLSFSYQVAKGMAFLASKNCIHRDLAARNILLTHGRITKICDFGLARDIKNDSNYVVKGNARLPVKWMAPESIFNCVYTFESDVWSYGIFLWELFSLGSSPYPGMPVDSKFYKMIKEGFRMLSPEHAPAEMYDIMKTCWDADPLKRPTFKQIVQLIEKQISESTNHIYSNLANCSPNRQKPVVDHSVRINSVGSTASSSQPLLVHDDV

Where only a bound is given, the exact number is not on record here.

Sequence of Vascular endothelial growth factor receptor 2 (P35968 whole entry): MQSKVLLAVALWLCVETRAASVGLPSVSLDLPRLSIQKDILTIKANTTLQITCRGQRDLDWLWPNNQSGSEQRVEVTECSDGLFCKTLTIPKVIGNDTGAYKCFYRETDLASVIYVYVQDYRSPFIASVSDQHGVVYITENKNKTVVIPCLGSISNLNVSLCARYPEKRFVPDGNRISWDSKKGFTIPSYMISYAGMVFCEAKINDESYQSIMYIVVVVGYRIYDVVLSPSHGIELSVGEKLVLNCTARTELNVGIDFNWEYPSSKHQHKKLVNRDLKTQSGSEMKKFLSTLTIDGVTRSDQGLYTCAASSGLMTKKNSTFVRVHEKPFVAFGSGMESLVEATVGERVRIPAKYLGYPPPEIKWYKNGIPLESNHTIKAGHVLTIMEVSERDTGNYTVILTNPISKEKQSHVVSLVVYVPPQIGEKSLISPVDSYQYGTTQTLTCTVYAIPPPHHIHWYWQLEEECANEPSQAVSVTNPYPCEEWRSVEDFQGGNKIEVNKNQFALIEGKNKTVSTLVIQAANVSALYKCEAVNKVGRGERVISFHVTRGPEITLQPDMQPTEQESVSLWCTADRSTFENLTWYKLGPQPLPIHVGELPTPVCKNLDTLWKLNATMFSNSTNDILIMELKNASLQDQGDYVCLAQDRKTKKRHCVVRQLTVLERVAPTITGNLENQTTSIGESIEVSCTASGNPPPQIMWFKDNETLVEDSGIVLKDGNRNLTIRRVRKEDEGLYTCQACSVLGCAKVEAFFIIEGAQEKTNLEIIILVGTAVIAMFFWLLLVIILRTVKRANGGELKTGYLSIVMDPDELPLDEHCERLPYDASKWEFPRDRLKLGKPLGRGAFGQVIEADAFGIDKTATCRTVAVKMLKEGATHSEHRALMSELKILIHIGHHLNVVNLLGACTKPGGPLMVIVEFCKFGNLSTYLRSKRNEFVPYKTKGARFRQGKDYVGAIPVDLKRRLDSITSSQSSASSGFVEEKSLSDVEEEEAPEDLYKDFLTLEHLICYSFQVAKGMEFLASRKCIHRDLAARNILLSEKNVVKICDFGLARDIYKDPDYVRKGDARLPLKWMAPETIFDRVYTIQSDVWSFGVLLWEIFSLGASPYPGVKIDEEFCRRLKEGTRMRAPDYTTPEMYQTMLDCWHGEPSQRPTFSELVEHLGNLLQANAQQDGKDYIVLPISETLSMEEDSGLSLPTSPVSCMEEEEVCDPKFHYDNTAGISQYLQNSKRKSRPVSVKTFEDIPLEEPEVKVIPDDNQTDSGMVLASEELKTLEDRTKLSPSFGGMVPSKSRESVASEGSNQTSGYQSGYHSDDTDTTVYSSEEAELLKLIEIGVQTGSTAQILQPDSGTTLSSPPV
Description for A549: Antiproliferative activity against human A549 cells assessed as inhibition of cell growth after 72 hrs by MTT assay
Description for HT-29: Antiproliferative activity against human HT-29 cells assessed as inhibition of cell growth after 72 hrs by MTT assay

On to `COc1cc2c(Oc3ccc(CC(=O)N/N=C/c4ccc(C(F)(F)F)cc4)cc3F)ccnc2cc1OCCCN1CCCC1`, for which the IC50 stood at 390 nM in [1]; 370 nM in experiment [2]; 1.86 nM in experiment [3]; 80 nM with A549; 31 nM in “cells”; 150 nM with HT-29. Further, the IC50 is 28.6 nM in [4]; 560 nM in experiment [5]; more than 100000 nM in experiment [6]; 290 nM in experiment [7]; 45 nM in [8].
